This note sets out measurements from ChEMBL document CHEMBL1145087 (J Med Chem, 2003).

Broadly, the EC50 is the concentration needed to bring the measured effect to its halfway point. High values mean weaker potency, low ones greater potency. What is called IC50 is the concentration that inhibits the measured activity by half. A low value points to greater potency in that assay. In general, Ki refers to the equilibrium dissociation constant of an inhibitor or competing ligand from its target.

The target in assay [1] is T1, Progesterone receptor (Homo sapiens, UniProt P06401).
T1 sequence (P06401 whole entry): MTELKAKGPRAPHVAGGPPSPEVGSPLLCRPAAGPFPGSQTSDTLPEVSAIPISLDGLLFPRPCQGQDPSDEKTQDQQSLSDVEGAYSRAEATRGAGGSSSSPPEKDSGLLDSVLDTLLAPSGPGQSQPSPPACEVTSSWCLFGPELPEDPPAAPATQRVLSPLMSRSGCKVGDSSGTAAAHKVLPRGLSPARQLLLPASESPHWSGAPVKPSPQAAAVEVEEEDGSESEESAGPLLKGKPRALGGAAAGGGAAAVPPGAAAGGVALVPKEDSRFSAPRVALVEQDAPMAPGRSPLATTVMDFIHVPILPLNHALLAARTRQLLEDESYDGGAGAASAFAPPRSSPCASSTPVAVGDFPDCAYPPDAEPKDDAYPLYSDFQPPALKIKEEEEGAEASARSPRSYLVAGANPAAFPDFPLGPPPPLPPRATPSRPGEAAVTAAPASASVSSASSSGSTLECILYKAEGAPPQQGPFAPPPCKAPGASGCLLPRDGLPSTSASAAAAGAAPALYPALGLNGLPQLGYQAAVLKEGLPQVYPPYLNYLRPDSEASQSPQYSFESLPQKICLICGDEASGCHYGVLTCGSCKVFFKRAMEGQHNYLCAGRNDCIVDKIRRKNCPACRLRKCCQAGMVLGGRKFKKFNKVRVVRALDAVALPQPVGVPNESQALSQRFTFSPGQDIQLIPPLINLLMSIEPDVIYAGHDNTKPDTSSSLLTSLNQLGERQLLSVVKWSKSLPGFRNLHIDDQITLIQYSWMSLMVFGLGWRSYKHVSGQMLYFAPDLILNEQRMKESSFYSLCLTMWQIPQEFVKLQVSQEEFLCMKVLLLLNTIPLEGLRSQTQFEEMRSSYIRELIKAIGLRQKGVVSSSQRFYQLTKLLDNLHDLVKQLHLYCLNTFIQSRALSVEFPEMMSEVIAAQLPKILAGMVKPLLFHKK
Put plainly: Agonistic activity against human progesterone receptor in CV-1 cells. It is filed as functional, cell-based.

Assay [2] has as its target T1, Progesterone receptor. Put plainly: Agonistic activity against human progesterone receptor in T47D breast cancer cells. It counts as functional, cell-based.
Assay [3] addresses T2, Progesterone receptor (Homo sapiens) (UniProt P06401).
T2 sequence (whole entry): T1 sequence (P06401 whole entry)
Put plainly: Percent agonistic effect towards human progesterone receptor in CV-1 cells. It counts as functional, cell-based.

Assay [4] concerns the target T2, Progesterone receptor (Homo sapiens). Put plainly: Percent agonistic effect towards human progesterone receptor in T47D breast cancer cells. It counts as functional, cell-based.
For assay [5], the species on record is Homo sapiens. Description: Relative potency for human androgen and progesterone receptors.
The species entered for assay [6] is Homo sapiens. Put plainly: Relative potency for human estrogen and progesterone receptors.
The species entered for assay [7] is Homo sapiens. Put plainly: Relative potency for human glucocorticoid and progesterone receptors.
For assay [8], the species on record is Homo sapiens. Put plainly: Relative potency for human mineralocorticoid and progesterone receptors.
In the next assay the target is T3, Glucocorticoid receptor (Homo sapiens, UniProt P04150).
T3 sequence (P04150 whole entry): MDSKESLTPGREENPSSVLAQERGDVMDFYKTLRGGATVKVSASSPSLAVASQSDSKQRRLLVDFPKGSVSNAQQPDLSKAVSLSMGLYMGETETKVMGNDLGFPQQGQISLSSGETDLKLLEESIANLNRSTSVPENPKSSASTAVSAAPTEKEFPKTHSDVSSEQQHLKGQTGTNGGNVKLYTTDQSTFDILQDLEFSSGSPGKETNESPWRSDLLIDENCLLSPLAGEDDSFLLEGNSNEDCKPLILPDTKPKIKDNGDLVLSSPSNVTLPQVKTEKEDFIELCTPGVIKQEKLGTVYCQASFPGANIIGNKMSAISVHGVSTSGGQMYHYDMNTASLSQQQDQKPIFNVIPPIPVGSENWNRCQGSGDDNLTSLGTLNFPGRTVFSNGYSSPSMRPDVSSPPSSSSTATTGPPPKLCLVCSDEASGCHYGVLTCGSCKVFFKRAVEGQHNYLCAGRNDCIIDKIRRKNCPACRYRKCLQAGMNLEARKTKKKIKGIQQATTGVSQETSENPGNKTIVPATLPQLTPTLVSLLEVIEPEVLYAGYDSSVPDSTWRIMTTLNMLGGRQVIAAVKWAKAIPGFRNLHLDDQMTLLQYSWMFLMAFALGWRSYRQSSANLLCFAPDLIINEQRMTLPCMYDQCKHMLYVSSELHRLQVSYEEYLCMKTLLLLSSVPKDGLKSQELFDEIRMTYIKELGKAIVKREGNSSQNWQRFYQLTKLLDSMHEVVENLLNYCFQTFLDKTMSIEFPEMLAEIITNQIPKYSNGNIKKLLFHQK

A further assay concerns the target Estrogen receptor (Homo sapiens, UniProt Q92731+P03372).
The next assay concerns the target T4, Androgen receptor (Homo sapiens, UniProt P10275).
T4 sequence (P10275 whole entry): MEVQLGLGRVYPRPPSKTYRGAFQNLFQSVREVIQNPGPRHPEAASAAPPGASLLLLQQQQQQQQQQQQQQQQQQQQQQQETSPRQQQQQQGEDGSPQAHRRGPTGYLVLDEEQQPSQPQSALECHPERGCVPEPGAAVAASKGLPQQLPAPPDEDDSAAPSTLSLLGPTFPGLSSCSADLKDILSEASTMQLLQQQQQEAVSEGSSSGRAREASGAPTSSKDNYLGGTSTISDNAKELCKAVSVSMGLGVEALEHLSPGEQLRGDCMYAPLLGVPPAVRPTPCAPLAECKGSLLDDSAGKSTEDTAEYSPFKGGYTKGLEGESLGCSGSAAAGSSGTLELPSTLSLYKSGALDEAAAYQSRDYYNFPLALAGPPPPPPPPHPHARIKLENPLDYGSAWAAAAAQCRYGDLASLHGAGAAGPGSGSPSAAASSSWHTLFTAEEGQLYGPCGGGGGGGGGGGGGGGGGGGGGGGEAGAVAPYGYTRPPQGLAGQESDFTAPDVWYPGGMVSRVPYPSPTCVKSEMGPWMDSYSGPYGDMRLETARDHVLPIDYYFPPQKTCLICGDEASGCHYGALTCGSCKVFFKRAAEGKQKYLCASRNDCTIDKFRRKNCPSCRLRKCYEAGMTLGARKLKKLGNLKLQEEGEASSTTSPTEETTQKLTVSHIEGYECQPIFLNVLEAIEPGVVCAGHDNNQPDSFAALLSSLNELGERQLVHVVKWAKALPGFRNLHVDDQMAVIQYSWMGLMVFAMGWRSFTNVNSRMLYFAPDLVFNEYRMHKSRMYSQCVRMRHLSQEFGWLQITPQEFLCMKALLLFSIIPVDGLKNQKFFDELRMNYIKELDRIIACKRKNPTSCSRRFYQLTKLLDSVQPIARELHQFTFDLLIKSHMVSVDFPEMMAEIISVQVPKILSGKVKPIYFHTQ
Description: biochemical.

Description for Androgen receptor: Inhibition of DHT binding to human androgen receptor expressed in baculovirus SF-12 cells
Description for Estrogen receptor: Inhibition of binding to human estrogen receptor
Description for Glucocorticoid receptor: Inhibition of human glucocorticoid receptor at 10e-12 to 10e-5 M

With `CC1=CC(C)(C)Nc2ccc3c(c21)/C(=C/c1ccccc1C)Oc1c(F)cccc1-3`, the values for the EC50 at Progesterone receptor [1] and on Progesterone receptor [2] were 0.0014 µM and 0.009 µM, respectively. The Efficacy in [3] was 163%; in assay [4], 43%. The Ratio in the assay listed under Homo sapiens [5] is more than 1000; in the assay filed under Homo sapiens [6], more than 1000; in the assay filed under Homo sapiens [7] it was 212; in the assay listed under Homo sapiens [8] it was more than 1000. In addition, the figures for the IC50 on Glucocorticoid receptor and against Estrogen receptor were 0.297 µM and 2.443 µM, respectively. Also, affinity at Androgen receptor was put at a Ki of 0.96 µM.

In the case of `CC1=CC(C)(C)Nc2ccc3c(c21)/C(=C/c1ccccc1)Oc1c(F)cccc1-3`, the EC50 was found to be 0.0021 µM at Progesterone receptor [1] and 0.011 µM on Progesterone receptor [2]. Moreover, the values for the Efficacy in [3] and in assay [4] were 171% and 45%, respectively. Besides, the Ratio in the assay listed under Homo sapiens [5] is 429; in the assay listed under Homo sapiens [6], more than 1000; in the assay listed under Homo sapiens [7] it was 119; in the assay listed under Homo sapiens [8] it was more than 1000. At Glucocorticoid receptor, the IC50 amounted to 0.25 µM. In addition, the affinity on Androgen receptor, expressed as Ki, was 1.46 µM.

As for `CC1=CC(C)(C)Nc2ccc3c(c21)/C(=C/c1ccsc1)Oc1ccc(F)cc1-3`, the EC50 on Progesterone receptor [1] worked out at 0.00071 µM; on Progesterone receptor [2], 0.0055 µM. In addition, the Efficacy in assay [3] was 174%; in [4], 48%. Moreover, the Ratio in the assay listed under Homo sapiens [5] is 303; in the assay listed under Homo sapiens [6] it was more than 1000; in the assay listed under Homo sapiens [7], 141; in the assay filed under Homo sapiens [8], more than 1000. The figures for the half-inhibitory concentration (IC50) against Glucocorticoid receptor and at Estrogen receptor were 0.1 µM and 3.488 µM, respectively. Also, affinity at Androgen receptor was put at a Ki of 0.669 µM.

For the compound `CC1=CC(C)(C)Nc2ccc3c(c21)/C(=C/c1ccncc1C)Oc1ccc(F)cc1-3`, the EC50 on Progesterone receptor [2] amounted to 0.0046 µM. The Efficacy in assay [3] is 138%; in [4], 46%. Moreover, the Ratio in the assay listed under Homo sapiens [5] is more than 1000; in the assay listed under Homo sapiens [6], 255; in the assay listed under Homo sapiens [7], 54; in the assay listed under Homo sapiens [8], 511. Also, the IC50 at Glucocorticoid receptor is 0.245 µM; against Estrogen receptor it was 1.149 µM. The compound further returned an inhibition constant (Ki) at Androgen receptor of more than 1 µM.

Take `CCc1ccccc1/C=C1\Oc2ccc(F)cc2-c2ccc3c(c21)C(C)=CC(C)(C)N3`: the EC50 is 0.002 µM at Progesterone receptor [1] and 0.018 µM at Progesterone receptor [2]. The Efficacy was found to be 161% in [3] and 51% in [4]. Besides, the Ratio was more than 1000 in the assay listed under Homo sapiens [5], more than 1000 in the assay listed under Homo sapiens [6], 39 in the assay listed under Homo sapiens [7] and 167 in the assay listed under Homo sapiens [8]. The compound also showed an IC50 against Glucocorticoid receptor of 0.077 µM. Besides, at Androgen receptor, the Ki amounted to 1.59 µM.
